Legend:
[1] = xn = mol fraction of the nth substance listed
[2] = refractive index (Na D-line) (dimensionless); xn = mol fraction of the nth substance listed; details: 100.5 kPa, Liquid, Standard Abbe refractometry

CCCCCC(=O)OCC [ethyl hexanoate] + CCO
Details	refractive index, 288.15 K	refractive index, 298.15 K	refractive index, 308.15 K	refractive index, 318.15 K	surface tension liquid-gas, 288.15 K [mN/m]	surface tension liquid-gas, 298.15 K [mN/m]	surface tension liquid-gas, 308.15 K [mN/m]	surface tension liquid-gas, 318.15 K [mN/m]
[1], x1 = 0.05	–	–	–	–	23.4	22.7	21.8	20.9
[1], x1 = 0.1	–	–	–	–	23.8	23	22.1	21.2
[1], x1 = 0.15	–	–	–	–	24.1	23.2	22.4	21.5
[1], x1 = 0.2	–	–	–	–	24.3	23.5	22.6	21.7
[1], x1 = 0.25	–	–	–	–	24.5	23.7	22.8	21.9
[1], x1 = 0.3	–	–	–	–	24.7	23.9	23	22
[1], x1 = 0.35	–	–	–	–	24.9	24	23.1	22.2
[1], x1 = 0.4	–	–	–	–	25.1	24.2	23.3	22.3
[1], x1 = 0.45	–	–	–	–	25.2	24.3	23.4	22.5
[1], x1 = 0.5	–	–	–	–	25.4	24.4	23.5	22.6
[1], x1 = 0.55	–	–	–	–	25.5	24.5	23.6	22.7
[1], x1 = 0.6	–	–	–	–	25.6	24.6	23.7	22.8
[1], x1 = 0.65	–	–	–	–	25.7	24.7	23.8	22.9
[1], x1 = 0.7	–	–	–	–	25.8	24.9	23.9	23
[1], x1 = 0.75	–	–	–	–	25.9	25	24	23.1
[1], x1 = 0.8	–	–	–	–	26	25.1	24.1	23.2
[1], x1 = 0.85	–	–	–	–	26.1	25.1	24.2	23.3
[1], x1 = 0.9	–	–	–	–	26.2	25.2	24.3	23.4
[1], x1 = 0.95	–	–	–	–	26.3	25.3	24.4	23.5
[1], x1 = 1	–	–	–	–	26.4	25.4	24.5	23.6
[2], x1 = 0.05	1.36942	1.36535	1.36109	1.35703	–	–	–	–
[2], x1 = 0.1	1.37451	1.37034	1.36602	1.36185	–	–	–	–
[2], x1 = 0.15	1.37883	1.37461	1.37024	1.36601	–	–	–	–
[2], x1 = 0.2	1.38253	1.37826	1.37388	1.3696	–	–	–	–
[2], x1 = 0.25	1.38577	1.38146	1.37706	1.37274	–	–	–	–
[2], x1 = 0.3	1.38864	1.38429	1.37986	1.3755	–	–	–	–
[2], x1 = 0.35	1.39119	1.38681	1.38236	1.37795	–	–	–	–
[2], x1 = 0.4	1.39347	1.38907	1.3846	1.38016	–	–	–	–
[2], x1 = 0.45	1.39553	1.39111	1.38663	1.38216	–	–	–	–
[2], x1 = 0.5	1.3974	1.39296	1.38847	1.38398	–	–	–	–
[2], x1 = 0.55	1.3991	1.39465	1.39016	1.38564	–	–	–	–
[2], x1 = 0.6	1.40066	1.3962	1.3917	1.38716	–	–	–	–
[2], x1 = 0.65	1.4021	1.39763	1.39312	1.38857	–	–	–	–
[2], x1 = 0.7	1.40343	1.39895	1.39444	1.38988	–	–	–	–
[2], x1 = 0.75	1.40466	1.40019	1.39568	1.39111	–	–	–	–
[2], x1 = 0.8	1.40579	1.40133	1.39682	1.39225	–	–	–	–
[2], x1 = 0.85	1.40684	1.40238	1.39787	1.3933	–	–	–	–
[2], x1 = 0.9	1.4078	1.40334	1.39882	1.39426	–	–	–	–
[2], x1 = 0.95	1.40868	1.40422	1.39972	1.39515	–	–	–	–
[2], x1 = 1	1.4095	1.40504	1.40055	1.39597	–	–	–	–

CCCCCCCC(=O)OCC [ethyl octanoate] + CCO
Details	refractive index, 288.15 K	refractive index, 298.15 K	refractive index, 308.15 K	refractive index, 318.15 K	surface tension liquid-gas, 288.15 K [mN/m]	surface tension liquid-gas, 298.15 K [mN/m]	surface tension liquid-gas, 308.15 K [mN/m]	surface tension liquid-gas, 318.15 K [mN/m]
[1], x1 = 0.05	–	–	–	–	23.6	22.9	22	21.1
[1], x1 = 0.1	–	–	–	–	24	23.3	22.5	21.6
[1], x1 = 0.15	–	–	–	–	24.4	23.7	22.8	21.9
[1], x1 = 0.2	–	–	–	–	24.8	24	23.2	22.3
[1], x1 = 0.25	–	–	–	–	25.1	24.3	23.4	22.6
[1], x1 = 0.3	–	–	–	–	25.3	24.5	23.7	22.8
[1], x1 = 0.35	–	–	–	–	25.5	24.8	23.9	23
[1], x1 = 0.4	–	–	–	–	25.7	24.9	24.1	23.2
[1], x1 = 0.45	–	–	–	–	25.9	25.1	24.2	23.4
[1], x1 = 0.5	–	–	–	–	26.1	25.3	24.4	23.5
[1], x1 = 0.55	–	–	–	–	26.2	25.4	24.5	23.7
[1], x1 = 0.6	–	–	–	–	26.3	25.6	24.7	23.8
[1], x1 = 0.65	–	–	–	–	26.5	25.7	24.8	24
[1], x1 = 0.7	–	–	–	–	26.6	25.8	24.9	24.1
[1], x1 = 0.75	–	–	–	–	26.7	25.9	25	24.2
[1], x1 = 0.8	–	–	–	–	26.8	26	25.1	24.3
[1], x1 = 0.85	–	–	–	–	26.9	26.1	25.2	24.4
[1], x1 = 0.9	–	–	–	–	27	26.2	25.3	24.5
[1], x1 = 0.95	–	–	–	–	27.1	26.3	25.4	24.6
[1], x1 = 1	–	–	–	–	27.2	26.4	25.5	24.7
[2], x1 = 0.05	1.37185	1.36779	1.36356	1.35953	–	–	–	–
[2], x1 = 0.1	1.37876	1.37462	1.37036	1.36625	–	–	–	–
[2], x1 = 0.15	1.38444	1.38028	1.37601	1.37184	–	–	–	–
[2], x1 = 0.2	1.38922	1.38502	1.38074	1.37654	–	–	–	–
[2], x1 = 0.25	1.39327	1.38905	1.38477	1.38054	–	–	–	–
[2], x1 = 0.3	1.39676	1.39252	1.38823	1.38398	–	–	–	–
[2], x1 = 0.35	1.39979	1.39553	1.39125	1.38698	–	–	–	–
[2], x1 = 0.4	1.40245	1.39818	1.39389	1.38961	–	–	–	–
[2], x1 = 0.45	1.40481	1.40053	1.39624	1.39195	–	–	–	–
[2], x1 = 0.5	1.40692	1.40263	1.39835	1.39403	–	–	–	–
[2], x1 = 0.55	1.40882	1.40451	1.40023	1.39591	–	–	–	–
[2], x1 = 0.6	1.41053	1.40621	1.40193	1.3976	–	–	–	–
[2], x1 = 0.65	1.41208	1.40776	1.40348	1.39914	–	–	–	–
[2], x1 = 0.7	1.4135	1.40917	1.40489	1.40054	–	–	–	–
[2], x1 = 0.75	1.4148	1.41047	1.40619	1.40183	–	–	–	–
[2], x1 = 0.8	1.41599	1.41166	1.40739	1.40302	–	–	–	–
[2], x1 = 0.85	1.41709	1.41276	1.4085	1.40412	–	–	–	–
[2], x1 = 0.9	1.4181	1.41378	1.40952	1.40515	–	–	–	–
[2], x1 = 0.95	1.41904	1.41472	1.41047	1.40611	–	–	–	–
[2], x1 = 1	1.41991	1.4156	1.41137	1.40702	–	–	–	–
